Test results as given in article PMC10610289, “Novel Baicalein-Derived Inhibitors of Plasmodium falciparum” (Pathogens, 2023).
Like-named read-outs stand apart in the source and are kept apart here.

Columns and labels:
[1] = test system: Dd2 DDD107498 (PfeEF2 Y186N); test: Cross-resistance panel, Dd2 DDD107498; format: cell-based, Plasmodium falciparum
Experimental: (§1) Parasite lines used in the study were P. falciparum 3D7 (Pf3D7 Chloroquine-sensitive) and Plasmodium falciparum K1 (PfK1 Chloroquine-resistant) sourced from the Malaria Research and Reference Reagent Resource Center (MR4), ATCC, Manassas, VA, USA. FNDR-10132 was tested against a cross-resistance panel at Swiss TPH, Allschwil, Switzerland.

[2] = test system: P. falciparum female gametocytes; test: P. falciparum dual gamete formation assay (PfDGFA), female; format: cell-based; conditions: Plasmodium falciparum, read-out: DGF Assay—Inhibition, female
Experimental: The FNDR-10132 was evaluated in a male and female gametocyte functional viability assay by following the procedure described in Ruecker et al..

[3] = Microsomal stability assay; format: in vitro ADME, mouse; conditions: 37 °C
Experimental: Dipotassium hydrogen phosphate, Potassium dihydrogen phosphate, and formic acid were obtained from Merck, Rahway, NJ, USA. Methanol–acetonitrile was procured from Biosolve Chimie, Dieuze, France. Mouse liver microsomes, 20 mg/mL, were received from a third-party vendor in India. Imipramine HCl (catalog no. I0971) and Carbamazepine (catalog no. O0363) were procured from TCI, Gurugram, India. ß-NADPH (product code-99197) was procured from Sisco Research Laboratories, Mumbai, India.
The in vitro metabolic stability was determined in mouse liver microsomes. To prepare a mouse liver microsomes (MLM) homogenate, 100 µL of microsomes was resuspended in 100 mM phosphate buffer (0.607 g K2HPO4 and 0.212 g KH2PO4 dissolved in 50 mL of de-ionized water), achieving a working concentration of 0.625 mg/mL. Positive control (Imipramine) and test compounds (FNDR-10132, 10136, 10139, and 10999) were spiked individually into the MLM homogenate at a final concentration of 1 µm. To pre-incubate, they were placed in a water bath at 37 °C for 5 min. At least 30 µL was collected in triplicates (0 min samples), and the reaction was quenched using 90 µL of acetonitrile, which contained 500 ng/mL of Carbamazepine as an internal standard. Nicotinamide Adenine Dinucleotide Phosphate (NADPH) in phosphate buffer was added to the remaining MLM at a 1 mM final concentration and further incubated at 37 °C. At the indicated time intervals, 30 µL aliquots were sampled in triplicates, and the reaction was quenched with acetonitrile containing Carbamazepine as the internal standard. The samples were centrifugated for 10 min at 13,000 rpm, and the supernatant was separated for further analysis.
The analytical method for microsomal stability and protein binding assay is as follows: Chromatographic elution was achieved following isocratic flow on an X-Terra MS C18 50 × 4.6 mm, 2.5 µm, Waters, USA, maintained at 40 °C. The mobile phase contained aqueous 0.1% formic acid in water in solvent A and acetonitrile acidified with 0.1% formic acid in solvent B delivered at 0.300 mL/min. The flow was 15% from solvent A and 85% from solvent B for 4.5 min. A total of 7 μL of the sample was injected for the assay. […] Detection was performed through multiple reaction monitoring (MRM). The ion transitions are as follows: Imipramine, FNDR-10132, FNDR-10136, FNDR-10139, FNDR-10999, and IS at m/z 281.1→86.0, 355.2→115.1, 354.0→298.0, 350.0→186.1, 349→305.2, and m/z 237.0→194.0, respectively. An optimized cone voltage and collision energy were used to ionize the compounds. The MS parameters follow as follows: cone gas flow 50 (L/h); ion source temperature 150 °C; desolvation gas flow 900 (L/h); desolvation temperature 400 °C; and collision gas flow 0.10 (mL/min).

[4] = test system: Dd2 DSM265 (Pfdhodh); test: Cross-resistance panel, Dd2 DSM265; format: cell-based, Plasmodium falciparum
Experimental: as §1

[5] = test system: Plasmodium falciparum 3D7 (chloroquine-sensitive); test: Antimalarial assay (IC50 determination), asexual blood stage, SYBR green; format: cell-based; conditions: Plasmodium falciparum
Experimental: as §1
(§2) As per the modified protocol stated by Trager and Jensen, 1976, Plasmodium falciparum parasite lines (Pf3D7 and PfK1) were cultured. Plasmodium strains were maintained in RPMI-1640 medium at 3–5% hematocrit supplemented with 0.2% w/v glucose, 0.5% w/v AlbuMaxII, 0.2% w/v NaHCO3, and 30 μg/mL gentamycin, and, additionally, 15 μM hypoxanthine was added and incubated at 37 °C with 5% O2, 5% CO2, and 90% N2. After 24 h, the medium was changed. After attaining high parasitemia (6–8% mature stage parasite), the culture was sub-passaged with fresh human RBCs.
(§3) All tested compounds were dissolved in a DMSO solvent and a prepared stock solution of 10 mM. The reference drug, Chloroquine diphosphate, was dissolved in CRPMI. Working solutions were made from stock solution after diluting in a CRPMI medium during the experiment. The maximum concentration of DMSO used in this study was <1%. It had no parasiticidal effect.
(§4) The P. falciparum (0.8–1% parasitemia and 1% hematocrit) synchronous culture was exposed for 72 h (at 37 °C, 5% O2, 5% CO2, and 90% N2) to the serially diluted compound in 96-well plates. A total of 100 µL of RBCs lytic buffer (5 mM EDTA, 20 mM Tris pH 7.5, 0.08% Triton X-100, and 0.008% Saponin) containing the SYBR green 1-X final concentration was distributed to each well and incubated for one hour at room temp in the dark. The plates were read under a fluorescence reader at an excitation of 485 ± 20 nm and emission of 535 ± 25 nm. The IC50 values were calculated based on the DNA content of the parasite relative to its control. An inhibitory concentration of 50% (IC50) was determined using the MS-EXEL template.

[6] = test system: Plasmodium falciparum K1 (chloroquine-resistant); test: as above; format: cell-based; conditions: read-out: ABS Assay Pf (K1)
Experimental: as §1, §2, §3, §4

[7] = test system: resistant strains of P. falciparum; test: Cross-resistance panel, all mutants/strains tested; format: cell-based; conditions: Plasmodium falciparum, read-out: antimalarial activity range against all mutants/strains tested
Experimental: as §1

For `CCCCCCc1ccc(-c2cc(=O)c3c(O)c(O)c(O)cc3o2)cc1` [FNDR-10132], the IC50 ([1]; Plasmodium falciparum, DD2) was 211 nM, the “Fold shift IC50 rel. Dd2” value ([1]; strain Dd2 DDD107498) was 0.6 and the inhibition at 1 µM [2] was 9.5%. The “stability in mouse liver microsomes (in words)” value ([3]; 60 min, ß-NADPH) was “moderate stability”, the “Microsomal Stability (Mouse)” value ([3]; at 30 min, 1 µM, NADPH) was 99% and the IC50 ([4]; Plasmodium falciparum) was 260 nM. For the same compound, the “Fold shift IC50 rel. Dd2” value ([4]; strain Dd2 DSM265) was 0.8, the IC50 ([5]; 3D7, 72 h, P. falciparum 3D7, 72 h exposure, read-out: IC50) was 60 nM and the IC50 ([5]; 3D7, chloroquine-sensitive 3D7, read-out: ABS Assay Pf (3D7)) was 60 nM. For the same compound, the IC50 [6] was 177 nM and the IC50 [7] was 200 to 300 nM.
